The text below walks through data of US8912224B2, “Substituted 2-(chroman-6-yloxy)-thiazoles and their use as pharmaceuticals” (Sanofi, priority 2011, dated 2014).

In general, IC50 refers to the concentration at which inhibition is half-maximal.

The subject of experiment [1] is Sprague-Dawley rats. Description: In vivo method for determining the effect on heart contractility (left ventricular dp/dtmax) in anesthetized rats. The note with it: rat, versus solvent control; for Contractility increase (%): i.v. infusion. On the procedure: B) In vivo Method for Determining the Effect on Heart Contractility Adult male Sprague-Dawley rats (Harlan […], Germany) weighing 340 to 370 g were anesthetized with pentobarbital (100 mg/kg i.p.) and ventilated with a mixture of oxygen (40%) and room air (60%) at a tidal volume of 1 ml/100 g at 60 breaths/min. Body temperature was maintained at 36.5±0.3° C. with a heating lamp and was monitored with a rectal thermo sensor. Systemic blood pressure was measured in the left carotid artery using a pressure transducer (Combitrans; B. Braun Melsungen AG, Melsungen, Germany) connected to a DC-bridge-amplifier (PLUGSYS/ADC Type 663; Harvard Apparatus GmbH, March-Hugstetten, Germany). The electrocardiogram was measured as lead II via subcutaneously placed electrodes connected to a Heart-Rate-Module ([…] Type 669; Harvard Apparatus GmbH, March-Hugstetten, Germany). A micro-tip catheter (2 French, SPR-320; Millar Instruments, Houston, Tex., USA) was placed via the right carotid artery into the left ventricle, and the left ventricular pressure (LVP) and the end diastolic pressure (EDP) were continuously measured. Registration of the hemodynamic data was performed via an analog digital converter by a personal computer using Notocord software (HEM version 3.5). Left ventricular contractility (dp/dtmax) and relaxation (dp/dtmin) were calculated from the LVP signal. For intravenous administration of the test compounds, the left jugular vein was prepared and a PP-50 catheter was inserted. Test compounds were administered either by intravenous bolus injection or by intravenous infusion by means of an infusion pump (Unita; B. Braun Melsungen AG, Melsungen, Germany). […] In a typical experiment, several dosages of the test compound were administered subsequently at increasing doses. Statistical significance of the data obtained with drug vs control experiments, in which solvent was administered, was evaluated with the 2-sided ANOVA test (program Everstat). Increases in left ventricular contractility (percent increase) by example compounds are given in Table 3 in comparison to control experiments in which solvent was administered.

Experiment [2] concerns the target T1, human NCX1 (Homo sapiens (Human), UniProt P32418). Description: Inhibition of Ca2+ influx into cells (NCX1 reverse mode), FLIPR Fluo-4 assay. Format: cell-based. The note with it: inhibition of NCX1 in reverse mode (Ca2+ influx into cells); read-out: NCX1rv IC50. From the text: (§1) The sodium/calcium exchanger NCX1 can transport calcium ions and sodium ions through the cell membrane. The transport is an exchange of Ca^2+and Na^+in two directions depending on membrane potential and ion gradients. At the first direction, named “forward mode” or “calcium export mode”, Ca^2+is transported out of the cell and Na^+ is transported into the cell. At the other direction, named “reverse mode” or “calcium import mode”, the transport directions are vice versa. The effect of the compounds of the invention on NCX1 was determined in CHO cells stably expressing human NCX1 (gene symbol SLC8A1; cf. WO 2009/115238). The assay is based on the monitoring of intracellular Ca^2+concentrations using a calcium-sensitive fluorescence dye which is detected by means of a FLIPR device (Fluorimetric Imaging Plate Reader, Molecular Devices).
Assay Technology—Reverse Mode
The assay is based on the monitoring of intracellular Ca^2+concentrations using the calcium-sensitive dye Fluo-4. CHO cells expressing NCX1 were loaded with the dye by means of the acetoxymethyl ester Fluo-4 AM (Invitrogen, F14202), which is cleaved intracellularly by esterase activity to yield the charged species of free Fluo-4. After an preincubation period with the test compound, Gramicidine (Sigma, G5002) was added. Gramicidine is an ionophor for Na^+ions mediating an increase of intracellular Na^+ions. Consequently, intracellular Na^+ions are exchanged against extracellular Ca^2+ions (Ca^2+influx, reverse mode). The intracellular elevation of Ca^2+ ions was detected by measuring the fluorescence of Fluo-4 at a wavelength of 520 nm by a FLIPR device.
Briefly, for the reverse mode transport assay 18000 cells per well were seeded into a 96 well microplate (Corning COSTAR 3904) and incubated overnight in culture medium (1× Nut Mix F12 (Ham) (Gibco, 21765-029); 10% (v/v) fetal calf serum (PAA Gold, A15-649); 450 μg/ml Geneticin (Gibco, 10131-027)). A total volume of 100 μl medium per well was used. For the preparation of the FLIPR assay, the culture medium was removed from the plates and 100 μl of dye solution (2 μM Fluo-4 AM; 0.02% (v/v) Pluronic F-127 (20%, Invitrogen, P3000MP); 0.1% (v/v) bovine albumin solution (30% (v/v), Sigma, A9205) in assay buffer (133.8 mM NaCl (Sigma, S5886); 4.7 mM KCl (Sigma, P3911); 1.25 mM MgCl2 (Merck, 1.05833.0250); 3.5 mM CaCl2 (Merck, 1.02083.0250); 5 mM glucose (Sigma, G7021); 10 mM Hepes (Sigma, H4034); 0.01% (v/v) Pluronic F-127 (5%, Sigma, P2443); 2.5 mM Probenecid (Maybridge, SB00915EB); pH 7.4)) were added into each well. The plates were incubated in the dark at room temperature for 80 min. After the incubation period, the dye solution was removed and the wells were washed with 100 μl of assay buffer. Then 80 μl of a solution of the test compound in assay buffer in different concentrations were added into the wells. The plates were incubated at 16° C. for 45 min. Meanwhile a 60 μM solution of Gramicidine in assay buffer (4° C.) was prepared and stored in the wells of a 96 well microplate (96 well microplate, polypropylene, U-shape (Greiner Bio-One, 650201)) at 4° C. until measurement was started. The fluorescence monitoring was performed at 240 measuring points with measurement intervals of 2 sec. After the fifth measuring point, 40 μl of the Gramicidine solution were added to each well of the assay plates to give a final Gramicidine concentration of 20 μM. For the determination of the IC50 values the minimal fluorescence value was subtracted from the maximal fluorescence value for all measuring points. The calculation of the IC50 values via the percentage inhibitions of Ca^2+influx into cells (reverse mode) effected by the test compound was performed in Biost@t Speed 2.0.

Experiment [3] addresses T1, human NCX1. Put plainly: Inhibition of Ca2+ efflux out of cells (NCX1 forward mode), FLIPR assay. Format: cell-based. Particulars: CHO cells stably expressing human NCX1, Ionomycin 2 μM, read-out: NCX1fw IC50.
Source text: as §1
Assay Technology—Forward Mode
The assay is based on the monitoring of intracellular Ca^2+concentrations using the PBX Calcium Assay Kit from BD (Becton, Dickinson and Company) with calcium indicator dye 51-9000177BKa (BD, 640177), CHO cells expressing NCX1 were loaded with the dye, and after a preincubation period with the test compound, lonomycin (Calbiochem, 407950) was added. Ionomycin is an ionophor for Ca^2+ions mediating an increase of intracellular Ca^2+ions. Consequently, intracellular Ca^2+ions are exchanged against extracellular Na^+ions (Ca^2+efflux, forward mode). The decrease of intracellular Ca^2+ions was detected by measuring the fluorescence of the calcium indicator dye at a wavelength of 520 nm by a FLIPR device.
Briefly, similarly as for the reverse mode, for the forward mode transport assay 18000 cells per well were seeded into a 96 well microplate (Corning COSTAR 3904) and incubated overnight in culture medium (cf. above). A total volume of 100 μl medium per well was used. For the preparation of the FLIPR assay, the culture medium was removed from the plates and 100 μl of assay buffer (133.8 mM NaCl (Sigma, S5886); 4.7 mM KCl (Sigma, P3911); 1.25 mM MgCl2 (Merck, 1.05833.0250); 3.5 mM CaCl2 (Merck, 1.02083.0250); 5 mM glucose (Sigma. G7021); 10 mM Hepes (Sigma, H4034); pH 7.4)) were added to each well in a washing step. Assay buffer was removed, and 100 μl of a solution of the test compound in assay buffer in different concentrations were added into the wells. Further, 100 μl of dye solution (0.09% (v/v) calcium indicator dye, 9.1% (v/v) signal enhancer (from PBX Calcium Assay Kit); in assay buffer) were added into each well. The plates were incubated in the dark at room temperature for 60 min. Meanwhile a 10 μM solution of lonomycin in assay buffer (additionally containing 0.05% fetal calf serum (cf. above); 4° C.) was prepared and stored in the wells of a 96 well microplate (96 well microplate, polypropylene, U-shape (Greiner Bio-One, 650201)). The fluorescence monitoring was performed at 60 measuring points with measurement intervals of 2 sec. After the fifth measuring point, 50 μl of the lonomycin solution were added to each well of the assay plate to give a final lonomycin concentration of 2 μM. For the determination of the IC50 values the minimal fluorescence value was subtracted from the maximal fluorescence value for the fifteenth to fifty-fifth measuring points. The calculation of the IC50 values via the percentage inhibitions of Ca^2+efflux out of cells (forward mode) effected by the test compound was performed in Biost@t Speed 2.0. “NCX1fw IC50” in Table 2 means the IC50 value for inhibition of NCX1 in forward mode (in μM (micromol/liter)).

T1 sequence (P32418 whole entry, looked up): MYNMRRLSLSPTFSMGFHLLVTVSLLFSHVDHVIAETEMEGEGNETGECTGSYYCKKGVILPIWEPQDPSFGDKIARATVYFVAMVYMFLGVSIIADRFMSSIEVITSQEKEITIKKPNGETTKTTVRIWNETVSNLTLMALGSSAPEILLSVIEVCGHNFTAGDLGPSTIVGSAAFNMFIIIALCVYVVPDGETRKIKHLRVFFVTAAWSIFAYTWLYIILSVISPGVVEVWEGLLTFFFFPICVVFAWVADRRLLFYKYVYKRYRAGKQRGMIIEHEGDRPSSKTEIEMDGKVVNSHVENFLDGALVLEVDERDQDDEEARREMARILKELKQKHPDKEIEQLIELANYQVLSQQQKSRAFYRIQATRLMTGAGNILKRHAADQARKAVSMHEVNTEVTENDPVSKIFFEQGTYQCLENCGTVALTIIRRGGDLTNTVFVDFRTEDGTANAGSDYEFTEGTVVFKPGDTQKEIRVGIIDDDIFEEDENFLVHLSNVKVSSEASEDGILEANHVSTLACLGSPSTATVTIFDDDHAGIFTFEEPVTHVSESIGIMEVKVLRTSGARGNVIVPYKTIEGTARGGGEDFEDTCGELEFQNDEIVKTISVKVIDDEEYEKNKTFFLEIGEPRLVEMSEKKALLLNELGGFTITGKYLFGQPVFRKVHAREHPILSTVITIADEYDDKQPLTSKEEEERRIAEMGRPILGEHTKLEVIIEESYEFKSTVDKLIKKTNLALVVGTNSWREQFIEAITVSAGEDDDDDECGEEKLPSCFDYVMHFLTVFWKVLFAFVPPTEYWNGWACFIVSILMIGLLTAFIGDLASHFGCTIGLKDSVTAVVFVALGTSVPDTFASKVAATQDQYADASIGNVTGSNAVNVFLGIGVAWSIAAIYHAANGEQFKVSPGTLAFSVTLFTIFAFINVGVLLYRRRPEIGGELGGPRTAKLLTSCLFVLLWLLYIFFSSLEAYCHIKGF

As to `Cc1ccccc1[C@@H]1CCc2cc(Oc3ncc(C(=O)NCCOP(=O)([O-])[O-])s3)ccc2O1.[Na+].[Na+]` [Example 345, Phosphoric acid mono-(2-{[2-((S)-2-o-tolyl-chroman-6-yloxy)-thiazole-5-carbonyl]-amino}-ethyl)ester disodium salt], the “Contractility increase (%)” value in experiment [1] (0.03 mg/kg/min) amounted to 32%; in experiment [1] (0.1 mg/kg/min) it was 85%. With “2-[2-(2,6-Dimethyl-phenyl)-chroman-6-yloxy]-thiazole-5-carboxylic acid [2-(2-oxo-imidazolidin-1-yl)-ethyl]-amide [compound 347]”, the IC50 in experiment [2] amounted to 1500 nM. On the same count and under the same terms, as for `CC[C@H](C)[C@H](NC(=O)c1cnc(Oc2ccc3c(c2)CCC(c2cccnc2)O3)s1)C(=O)O` (stereo partly drawn) [compound 270, (23,3S)-3-Methyl-2-{[2-(2-pyridin-3-yl-chroman-6-yloxy)-thiazole-5-carbonyl]-amino}-pentanoic acid], the figure is 12500 nM. Regarding `O=C(NC1CC1)c1cnc(Oc2ccc3c(c2)CCC(c2ccccc2)O3)s1` (stereo not drawn) [Example 315, 2-(2-Phenyl-chroman-6-yloxy)-thiazole-5-carboxylic acid cyclopropylamide], the IC50 in experiment [3] turned out to be 3300 nM. Moreover, the change in vivo at 0.1 mg/kg in experiment [1] (iv, i.v. bolus injection, 0.1 mg/kg, read-out: Contractility increase (%)) was found to be 28%. In experiment [1] (iv, i.v. bolus injection, 0.3 mg/kg, read-out: Contractility increase (%)), the change in vivo at 0.3 mg/kg turned out to be 41%. The change in vivo at 1 mg/kg in experiment [1] (iv, i.v. bolus injection, 1.0 mg/kg, read-out: Contractility increase (%)) came out at 64%.

Regarding `Cc1csc(CCNCc2cnc(Oc3ccc4c(c3)CCC(c3ccccc3)O4)s2)n1` (stereo not drawn) [compound 151, [2-(4-Methyl-thiazol-2-yl)-ethyl]-[2-(2-phenyl-chroman-6-yloxy)-thiazol-5-ylmethy]-amine], the IC50 in experiment [2] came to 400 nM.
